Results: patent publication US7863014B2 (priority 2001, dated 2011)

Key:
[1] = tested on: polyphosphate-dependent NAD kinase from Micrococcus flavus; assay type: biochemical
[2] = target: M. tuberculosis Ppnk protein (Mycobacterium tuberculosis, UniProt P9WHV7); assay type: biochemical, M. tuberculosis H37Rv
Sequence of M. tuberculosis Ppnk protein (P9WHV7 whole entry): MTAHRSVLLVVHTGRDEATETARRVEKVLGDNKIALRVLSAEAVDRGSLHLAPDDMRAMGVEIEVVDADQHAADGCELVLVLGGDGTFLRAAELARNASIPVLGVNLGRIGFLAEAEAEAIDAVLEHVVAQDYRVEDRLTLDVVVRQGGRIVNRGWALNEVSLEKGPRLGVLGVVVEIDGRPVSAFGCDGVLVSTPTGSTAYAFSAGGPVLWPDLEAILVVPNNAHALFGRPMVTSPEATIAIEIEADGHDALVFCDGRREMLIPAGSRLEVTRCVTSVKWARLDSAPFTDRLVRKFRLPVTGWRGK

| SMILES | Activation by metal ions [1] | Activation by metal ions [2] | other results |
| --- | --- | --- | --- |
| Nc1ncnc2c1ncn2[C@@H]1O[C@H](COP(=O)(O)OP(=O)(O)OP(=O)(O)O)[C@@H](O)[C@H]1O [ATP] |  |  | ATP/polyphosphate reaction ratio [1]: ATP (100%); ATP/polyphosphate reaction ratio [2]: ATP (100%) |
| [Cl][Al]([Cl])[Cl] [AlCl3] | AlCl3 (0%) | AlCl3 (0%) |  |
| [Ca+2].[Cl-].[Cl-] [CaCl2] | CaCl2 (65%) | CaCl2 (34%) |  |
| [Cl-].[Cl-].[Co+2] [CoCl2] | CoCl2 (51%) | CoCl2 (55%) |  |
| [Cl][Cu][Cl] [CuCl2] | CuCl2 (33%) | CuCl2 (8%) |  |
| [Cl-].[Cl-].[Mg+2] [MgCl2] | MgCl2 (100%) | MgCl2 (100%) |  |
| [Cl][Mn][Cl] [MnCl2] | MnCl2 (143%) | MnCl2 (268%) |  |
| [Cl-].[Cl-].[Zn+2] [ZnCl2] | ZnCl2 (30%) | ZnCl2 (30%) |  |
| O=P1(O)OP(=O)(O)OP(=O)(O)OP(=O)(O)OP(=O)(O)OP(=O)(O)O1 [hexametaphosphate] |  |  | Polyphosphate specificity [1]: (58%); Polyphosphate specificity [2]: (72%) |
